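How tested: cells in 96-well plates exposed to compound for 48 hours at five concentrations. At the GI50, growth is halved. At the TGI there is no net growth.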
What was measured:
Experiment in all cases: NCI tumour cell line growth inhibition, 48 h
786-0 renal = tested on: 786-0 renal
A498 renal = tested on: A498 renal
A549 NSCLC = tested on: A549 NSCLC
ACHN renal = tested on: ACHN renal
BT-549 breast = tested on: BT-549 breast
CAKI-1 renal = tested on: CAKI-1 renal
CCRF-CEM leukemia = tested on: CCRF-CEM leukemia
COLO 205 colon = tested on: COLO 205 colon
DU-145 prostate = tested on: DU-145 prostate
EKVX NSCLC = tested on: EKVX NSCLC
HCC-2998 colon = tested on: HCC-2998 colon
HCT-116 colon = tested on: HCT-116 colon
HCT-15 colon = tested on: HCT-15 colon
HL-60(TB) leukemia = tested on: HL-60(TB) leukemia
HOP-62 NSCLC = tested on: HOP-62 NSCLC
HOP-92 NSCLC = tested on: HOP-92 NSCLC
HS 578T breast = tested on: HS 578T breast
HT29 colon = tested on: HT29 colon
IGROV1 ovarian = tested on: IGROV1 ovarian
K-562 leukemia = tested on: K-562 leukemia
KM12 colon = tested on: KM12 colon
LOX IMVI melanoma = tested on: LOX IMVI melanoma
M14 melanoma = tested on: M14 melanoma
MALME-3M melanoma = tested on: MALME-3M melanoma
MCF7 breast = tested on: MCF7 breast
MDA-MB-231 breast = tested on: MDA-MB-231 breast
MDA-MB-435 = tested on: MDA-MB-435
MOLT-4 leukemia = tested on: MOLT-4 leukemia
NCI-H226 lung = tested on: NCI-H226 lung

In the case of CS(=O)(=O)c1nccc(-c2c(-c3ccc(F)c(OCc4ccc(F)cc4)c3)nc3sccn23)n1, the GI50 (786-0 renal) is reported as 20.9 µM, the TGI (786-0 renal) is reported as 53.3 µM and the GI50 (A498 renal) is reported as 13 µM. It also gave a TGI (A498 renal) of 26 µM, a GI50 (A549 NSCLC) of 17.7 µM and a TGI (A549 NSCLC) of 34.6 µM. For the same compound, the GI50 (ACHN renal) was 16.6 µM, the TGI (ACHN renal) was 30.9 µM and the GI50 (BT-549 breast) was 21.2 µM. For the same compound, the TGI (BT-549 breast) was 63.6 µM, the GI50 (CAKI-1 renal) was 14.8 µM and the TGI (CAKI-1 renal) was 28 µM. For the same compound, the GI50 (CCRF-CEM leukemia) was 3.38 µM, the TGI (CCRF-CEM leukemia) was 13.1 µM and the GI50 (COLO 205 colon) was 17.6 µM. It also gave a TGI (COLO 205 colon) of 34 µM, a GI50 (DU-145 prostate) of 3.33 µM and a TGI (DU-145 prostate) of 11.1 µM. For the same compound, the GI50 (EKVX NSCLC) was 15.6 µM, the TGI (EKVX NSCLC) was 29.1 µM and the GI50 (HCC-2998 colon) was 14.2 µM. For the same compound, the TGI (HCC-2998 colon) was 27.9 µM, the GI50 (HCT-116 colon) was 14.4 µM and the TGI (HCT-116 colon) was 27.5 µM. For the same compound, the GI50 (HCT-15 colon) was 13.8 µM, the TGI (HCT-15 colon) was 31.4 µM and the GI50 (HL-60(TB) leukemia) was 3.89 µM. For the same compound, the TGI (HL-60(TB) leukemia) was 15.3 µM, the GI50 (HOP-62 NSCLC) was 16.2 µM and the TGI (HOP-62 NSCLC) was 30.9 µM. The GI50 (HOP-92 NSCLC) was 5.43 µM, the TGI (HOP-92 NSCLC) was 21.5 µM and the GI50 (HS 578T breast) was 21.2 µM. The TGI (HS 578T breast) was 72.2 µM, the GI50 (HT29 colon) was 21.6 µM and the TGI (HT29 colon) was 61.6 µM. The GI50 (IGROV1 ovarian) was 15.5 µM, the TGI (IGROV1 ovarian) was 31.8 µM and the GI50 (K-562 leukemia) was 21 µM. It also gave a TGI (K-562 leukemia) of 72.8 µM, a GI50 (KM12 colon) of 17.6 µM and a TGI (KM12 colon) of 33.8 µM. The GI50 (LOX IMVI melanoma) was 10.2 µM, the TGI (LOX IMVI melanoma) was 24.5 µM and the GI50 (M14 melanoma) was 18.5 µM. For the same compound, the TGI (M14 melanoma) was 36.7 µM, the GI50 (MALME-3M melanoma) was 24.5 µM and the TGI (MALME-3M melanoma) was 71 µM. The GI50 (MCF7 breast) was 5.69 µM, the TGI (MCF7 breast) was 22.2 µM and the GI50 (MDA-MB-231 breast) was 18.1 µM. It also gave a TGI (MDA-MB-231 breast) of 39.4 µM, a GI50 (MDA-MB-435) of 16.5 µM and a TGI (MDA-MB-435) of 31 µM. The GI50 (MOLT-4 leukemia) was 18.2 µM, the TGI (MOLT-4 leukemia) was 44.4 µM and the GI50 (NCI-H226 lung) was 28.3 µM.
